The text below walks through data of US6461807B1, “Methods for drug target screening” (priority 1997, dated 2002).

Test [1] relates to S. cerevisiae wild-type and cna, cph1, fpr1 deletion strains. The test can be described thus: Transcript array comparison of drug-exposed wild-type and deletion mutant yeast, microarray with approximately 5900 ORFs. Format: cell-based, Saccharomyces cerevisiae. The procedure:
(§1) The RNA was converted into cDNA while simultaneously incorporating fluorescent nucleotides, according to standard protocols as described above. The cDNAs were hybridized to either a microarray having 140 sites with relevant S. cerevisiae ORF sequences, or to a microarray having sites with 5900 sites with nearly all known S. cerevisiae ORF sequences. The intensities of the two fluors used to label the RNAs to be compared were measured at each site of the array. The ratio of these intensities is referred to as the expression ratio.
(§2) To produce deletion mutant transcript arrays, RNA was prepared from a publicly available S. cerevisiae strain that contains genetic disruptions in both catalytic subunits of calcineurin (hereinafter, the cna mutant) and its isogeneic with the parental wild-type strain. These two strains were grown in parallel, harvested and processed in an identical manner as described above. As above, the cDNAs were hybridized to the array and the intensities of the two fluors (expression ratio) were measured at each site of the array. Thereby a cna mutant transcript array was produced.
(§3) Selected pairs of the transcript arrays were compared by computing a correlation coefficient between the pairs as previously described. As is known in the art, higher values of the correlation coefficient represent a greater degree of similarity between the pair of arrays. As indicated subsequently, in some cases expression ratios were directly used for this computation, while in other cases the log10 function of the expression ratios were used.
In this table, columns two and three list the transcript arrays that are compared (labeled “First Transcript Array” and “Second Transcript Array”). Their correlation coefficient is presented in the fourth column (labeled “Corr. Coef.”). The number of standard deviations represented by the correlation coefficient (in terms of the expected correlation coefficient representing one Gaussian standard deviation) is presented in the fifth column (labeled “Std. Dev.”). The expected standard deviation depends on the data set size according to known statistical procedures. The number of standard deviations above the expected mean can be used to determine the statistical significance of the correlation coefficient, as is known in the art.
The transcript arrays measured in Tables 1 and 2 were similarly produced by the previously described methods.

Test [2] shares this test system. The test can be described thus: Transcript array comparison of drug-exposed wild-type and deletion mutant yeast, microarray with 140 selected ORF sites. Format: cell-based, Saccharomyces cerevisiae. The note with it: Table 3, 140 ORF sites. On the procedure: as §1, §2
Deletion mutant transcript arrays were also produced in similar manners for disruptions to the genes cph1 (coding the major cyclophilin in yeast) and fpr1 (coding the major FK506-binding protein).
as §3
This table, in contrast to Table 1 and 2 (which were created from microarrays with approximately 5900 ORF sites) was created from microarray having sites with 140 S. cerevisiae selected ORF sites thought to be relevant to the primary action of these drugs. Correlation coefficients were computed using log10 of the raw expression ratios.

The mark [3] stands for this setting: Table 1, log10 of expression ratios, 1 mg/ml FK506 or 30 mg/ml CSA.

Turning to `C=CC[C@@H]1/C=C(\C)C[C@H](C)C[C@H](OC)[C@H]2O[C@@](O)(C(=O)C(=O)N3CCCC[C@H]3C(=O)O[C@H](/C(C)=C/[C@@H]3CC[C@@H](O)[C@H](OC)C3)[C@H](C)[C@@H](O)CC1=O)[C@H](C)C[C@@H]2OC` [FK506], in test [1] (Table 1, log10 of expression ratios, 1 mg/ml FK506), the “Corr. Coef., wild-type drug transcript array vs fpr1 mutant transcript array” value is −0.011. Further, the “Corr. Coef., wild-type FK506 drug transcript array vs wild-type CSA drug transcript array” value in test [1] (Table 1, log10 of expression ratios, 1 mg/ml FK506, 30 mg/ml CSA, three generations) was determined as 0.334. In test [1] (setting [3]), the “Corr. Coef., wild-type drug transcript array vs cna mutant drug transcript array (same drug)” value was 0.065; the “Corr. Coef., wild-type drug transcript array vs cna mutant transcript array” value is on record as 0.605; the “Corr. Coef., wild-type drug transcript array vs cph1 mutant drug transcript array (same drug)” value was 0.767; the “Corr. Coef., wild-type drug transcript array vs fpr1 mutant drug transcript array (same drug)” value is −0.085. Besides, in test [1] (Table 2), the “Corr. Coef., wild-type FK506 drug transcript array vs cna mutant FK506 drug transcript array” value was determined as 0.052; the “Corr. Coef., wild-type FK506 drug transcript array vs cna mutant transcript array” value stood at 0.245; the “Corr. Coef., wild-type FK506 drug transcript array vs cph1 mutant FK506 drug transcript array” value was determined as 0.328; the “Corr. Coef., wild-type FK506 drug transcript array vs fpr1 mutant FK506 drug transcript array” value came to 0.136. Besides, the “Corr. Coef., wild-type FK506 drug transcript array vs wild-type CSA drug transcript array” value in test [1] (Table 2) was found to be 0.243. Also, in test [2], the “Corr. Coef., cna mutant FK506 drug transcript array vs cna mutant CSA drug transcript array” value came out at 0.20; the “Corr. Coef., cph1 mutant FK506 drug transcript array vs cph1 mutant CSA drug transcript array” value is 0.15; the “Corr. Coef., cph1 mutant FK506 drug transcript array vs fpr1 mutant CSA drug transcript array” value stood at 0.71; the “Corr. Coef., fpr1 mutant FK506 drug transcript array vs cph1 mutant CSA drug transcript array” value was 0.40. Besides, the “Corr. Coef., fpr1 mutant FK506 drug transcript array vs fpr1 mutant CSA drug transcript array” value in test [2] is recorded as −0.01. Besides, in test [2] (log10 of raw expression ratios), the “Corr. Coef., wild-type FK506 drug transcript array vs wild-type CSA drug transcript array” value was 0.67; the “Corr. Coef., wild-type drug transcript array vs cna mutant drug transcript array (same drug)” value was −0.12; the “Corr. Coef., wild-type drug transcript array vs cna mutant transcript array” value was 0.61; the “Corr. Coef., wild-type drug transcript array vs cph1 mutant drug transcript array (same drug)” value is reported as 0.70. Also, in test [2] (log10 of raw expression ratios), the “Corr. Coef., wild-type drug transcript array vs fpr1 mutant drug transcript array (same drug)” value is listed as 0.04. Besides, the “Corr. Coef., wild-type vs wild-type transcript array vs wild-type drug transcript array” value in test [2] (negative control comparison) is −0.05.
